Source: ChEMBL document CHEMBL6134849, “A Water-Soluble Aggregation-Induced Emission Photosensitizer with Intrinsic Antibacterial Activity as an Antiplanktonic and Antibiofilm Therapeutic Agent” (J Med Chem, 2025)
Calls of active or inactive are those of the source. The rule behind the calls is not given here.

Tests used:
Staphylococcus aureus [1] = assay: Downregulation of glyQS expression level in Staphylococcus aureus at 6.25 uM incubated for 1 hr in absence of light irradiation; assay type: functional
Staphylococcus aureus [2] = assay: Downregulation of thrS expression level in Staphylococcus aureus at 6.25 uM incubated for 1 hr in absence of light irradiation; assay type: functional
Staphylococcus aureus [3] = assay: Downregulation of gltX expression level in Staphylococcus aureus at 6.25 uM incubated for 1 hr in absence of light irradiation; assay type: functional
Staphylococcus aureus [4] = assay: Downregulation of hisS expression level in Staphylococcus aureus at 6.25 uM incubated for 1 hr in absence of light irradiation; assay type: functional
Staphylococcus aureus [5] = assay: Downregulation of lysS expression level in Staphylococcus aureus at 6.25 uM incubated for 1 hr in absence of light irradiation; assay type: functional
Staphylococcus aureus [6] = assay: Downregulation of tyrS expression level in Staphylococcus aureus at 6.25 uM incubated for 1 hr in absence of light irradiation; assay type: functional
Staphylococcus aureus [7] = assay: Downregulation of valS expression level in Staphylococcus aureus at 6.25 uM incubated for 1 hr in absence of light irradiation; assay type: functional
Staphylococcus aureus [8] = assay: Downregulation of asnS expression level in Staphylococcus aureus at 6.25 uM incubated for 1 hr in absence of light irradiation; assay type: functional
Staphylococcus aureus [9] = assay: Downregulation of ileS expression level in Staphylococcus aureus at 6.25 uM incubated for 1 hr in absence of light irradiation; assay type: functional
Cell membrane [10] = assay: Induction of cell membrane damage in Staphylococcus aureus assessed as DNA leakage at 10 uM preincubated with compound for 20 mins followed by 600 nm light irradiation for 45 min by absorption based plate reader analysis; assay type: subcellular; settings: time 65.0 min
Cell membrane [11] = assay: Induction of cell membrane damage in Staphylococcus aureus assessed as RNA leakage at 10 uM preincubated with compound for 20 mins followed by 600 nm light irradiation for 45 min by absorption based plate reader analysis; assay type: subcellular; settings: time 65.0 min
Cell membrane [12] = assay: Induction of cell membrane damage in Staphylococcus aureus assessed as protein leakage at 10 uM preincubated with compound for 20 mins followed by 600 nm light irradiation for 45 min by absorption based plate reader analysis; assay type: subcellular; settings: time 65.0 min
Cell membrane [13] = assay: Induction of cell membrane damage in Pseudomonas aeruginosa assessed as DNA leakage at 10 uM preincubated with compound for 20 mins followed by 600 nm light irradiation for 45 min by absorption based plate reader analysis; assay type: subcellular; settings: time 65.0 min
Cell membrane [14] = assay: Induction of cell membrane damage in Pseudomonas aeruginosa assessed as RNA leakage at 10 uM preincubated with compound for 20 mins followed by 600 nm light irradiation for 45 min by absorption based plate reader analysis; assay type: subcellular; settings: time 65.0 min
Cell membrane [15] = assay: Induction of cell membrane damage in Pseudomonas aeruginosa assessed as protein leakage at 10 uM preincubated with compound for 20 mins followed by 600 nm light irradiation for 45 min by absorption based plate reader analysis; assay type: subcellular; settings: time 65.0 min
Cell membrane [16] = assay: Induction of cell membrane damage in Pseudomonas aeruginosa assessed as bacterial cell shrinkage at 10 uM preincubated with compound for 20 mins followed by 600 nm light irradiation for 45 min by SEM analysis; assay type: subcellular; settings: time 65.0 min
Cell membrane [17] = assay: Induction of cell membrane damage in Pseudomonas aeruginosa assessed as bacterial cell collapse at 10 uM preincubated with compound for 20 mins followed by 600 nm light irradiation for 45 min by SEM analysis; assay type: subcellular; settings: time 65.0 min
Cell membrane [18] = assay: Induction of cell membrane damage in Staphylococcus aureus assessed as bacterial cell shrinkage at 10 uM preincubated with compound for 20 mins followed by 600 nm light irradiation for 45 min by SEM analysis; assay type: subcellular; settings: time 65.0 min
Cell membrane [19] = assay: Induction of cell membrane damage in Staphylococcus aureus assessed as bacterial cell collapse at 10 uM preincubated with compound for 20 mins followed by 600 nm light irradiation for 45 min by SEM analysis; assay type: subcellular; settings: time 65.0 min
Staphylococcus aureus [20] = assay: Downregulation of hlgB protein expression in Staphylococcus aureus under light irradiation; assay type: functional
Staphylococcus aureus [21] = assay: Downregulation of hlgC protein expression in Staphylococcus aureus under light irradiation; assay type: functional
Staphylococcus aureus [22] = assay: Downregulation of ssl7 protein expression in Staphylococcus aureus under light irradiation; assay type: functional
Staphylococcus aureus [23] = assay: Downregulation of cell wall organization related proteins in Staphylococcus aureus under light irradiation; assay type: functional, organism-based
[24] = Cytotoxicity against human HFF-1 cells assessed as cell viability at 40 uM in presence of 600 nm light irradiation for 45 mins by MTT assay relative to control; assay type: toxicity, cell-based; settings: read-out: Activity
Staphylococcus aureus [25] = assay: (§1) In vivo antibacterial activity against methicillin-resistant Staphylococcus aureus ATCC 43300 infected in female BALB/c mouse skin wound infection model assessed as reduction in wound area at 90 uM pre-infected with bacteria for 24 hrs followed by topical compound addition for 10 mins in presence of 600 nm 60 mW/cm2 light irradiation for 15 mins and measured on day 4; assay type: functional, organism-based; settings: time 4.0 day
Pseudomonas aeruginosa [26] = assay: as §1, with “Pseudomonas aeruginosa” for “Staphylococcus aureus”, “27853” for “43300”; assay type: functional, organism-based; settings: time 4.0 day
Staphylococcus aureus [27] = assay: (§2) In vivo antibacterial activity against methicillin-resistant Staphylococcus aureus ATCC 43300 infected in female BALB/c mouse skin wound infection model assessed as reduction in inflammatory cell infiltration in wound at 90 uM pre-infected with bacteria for 24 hrs followed by topical compound addition for 10 mins in presence of 600 nm 60 mW/cm2 light irradiation for 15 mins and measured on day 6 by H and E staining based analysis; assay type: functional, organism-based; settings: time 6.0 day
Staphylococcus aureus [28] = assay: as §2, with “Masson trichrome” for “H and E”; assay type: functional, organism-based; settings: time 6.0 day
Staphylococcus aureus [29] = assay: as §2, with “collagen deposition” for “reduction in inflammatory cell infiltration”; assay type: functional, organism-based; settings: time 6.0 day
Staphylococcus aureus [30] = assay: as §2, with “collagen deposition” for “reduction in inflammatory cell infiltration”, “Masson trichrome” for “H and E”; assay type: functional, organism-based; settings: time 6.0 day
Pseudomonas aeruginosa [31] = assay: Antibiofilm activity against Pseudomonas aeruginosa assessed as bacterial eradication by measuring green fluorescence signal at 10 uM incubated for 1 hrs in presence of light irradiation by calcein-AM fluorescence dye based analysis; assay type: functional, organism-based
Staphylococcus aureus [32] = assay: Antibiofilm activity against Staphylococcus aureus assessed as bacterial eradication by measuring green fluorescence signal at 10 uM incubated for 1 hrs in presence of light irradiation by calcein-AM fluorescence dye based analysis; assay type: functional, organism-based
Staphylococcus aureus [33] = assay: Selective drug uptake in Staphylococcus aureus co-cultured with human HFF-1 cells by measuring fluorescence signal at 10 uM incubated for 20 mins; assay type: ADME, organism-based; settings: hff-1, 20 min
[34] = Drug uptake in human HFF-1 cells co-cultured with Staphylococcus aureus by measuring fluorescence signal at 10 uM incubated for 20 mins; assay type: ADME, cell-based; settings: hff-1, 20 min
Pseudomonas aeruginosa [35] = assay: Selective drug uptake in Pseudomonas aeruginosa co-cultured with human HFF-1 cells by measuring fluorescence signal at 10 uM incubated for 20 mins; assay type: ADME, organism-based; settings: hff-1, 20 min

C#CCC[n+]1c(/C=C/c2ccc(-c3ccc(N(c4ccc(OCCC[N+](C)(C)C)cc4)c4ccc(OCCC[N+](C)(C)C)cc4)cc3)s2)sc2ccccc21.[Br-].[Br-].[Br-]
Activity (Staphylococcus aureus [1]): Active
Activity (Staphylococcus aureus [2]): Active
Activity (Staphylococcus aureus [3]): Active
Activity (Staphylococcus aureus [4]): Active
Activity (Staphylococcus aureus [5]): Active
Activity (Staphylococcus aureus [6]): Active
Activity (Staphylococcus aureus [7]): Active
Activity (Staphylococcus aureus [8]): Active
Activity (Staphylococcus aureus [9]): Active
Activity (Cell membrane [10]): Active
Activity (Cell membrane [11]): Active
Activity (Cell membrane [12]): Active
Activity (Cell membrane [13]): Active
Activity (Cell membrane [14]): Active
Activity (Cell membrane [15]): Active
Activity (Cell membrane [16]): Active
Activity (Cell membrane [17]): Active
Activity (Cell membrane [18]): Active
Activity (Cell membrane [19]): Active
Activity (Staphylococcus aureus [20]): Active
Activity (Staphylococcus aureus [21]): Active
Activity (Staphylococcus aureus [22]): Active
Activity (Staphylococcus aureus [23]): Active
viability at 0.75 h, 40 µM [24]: < 90%
Activity (Staphylococcus aureus [25]): Active
Activity (Pseudomonas aeruginosa [26]): Active
Activity (Staphylococcus aureus [27]): Active
Activity (Staphylococcus aureus [28]): Active
Activity (Staphylococcus aureus [29]): Active
Activity (Staphylococcus aureus [30]): Active
Activity (Pseudomonas aeruginosa [31]): Active
Activity (Staphylococcus aureus [32]): Active
Drug uptake (Staphylococcus aureus [33]): Active
Drug uptake [34]: Not_active
Drug uptake (Pseudomonas aeruginosa [35]): Active
